Where two headings read alike, the source gives them in different places.

One assay concerns the target KRAS G12C (Homo sapiens, UniProt P01116, G12C). Put plainly: GDP-GTP exchange assay (KRAS_G12C exchange assay). The assay is classed as biochemical. The following applies: bodipy-loaded KRAS G12C 2.5 nM, SOS1 150 nM, 2 hours pre-incubation with inhibitor; read-out: G12C_exchange. As for the experimental part: The inhibitor potency of the exemplified compounds was determined in a fluorescence based guanine nucleotide exchange assay, which measures the exchange of bodipy-GDP (fluorescently labeled GDP) for GppNHp (Non-hydrolyzable GTP analog) to generate the active state of KRAS in the presence of SOS1 (guanine nucleotide exchange factor). Inhibitors were serially diluted in DMSO and a volume of 0.1 μL was transferred to the wells of a black low volume 384-well plate. 5 μL/well volume of bodipy-loaded KRAS G12C diluted to 5 nM in assay buffer (25 mM Hepes pH 7.5, 50 mM NaCl, 10 mM MgCl2 and 0.01% Brij-35) was added to the plate and pre-incubated with inhibitor for 2 hours at ambient temperature. Appropriate controls (enzyme with no inhibitor or with a G12C inhibitor (AMG-510)) were included on the plate. The exchange was initiated by the addition of a 5 μL/well volume containing 1 mM GppNHp and 300 nM SOS1 in assay buffer. The 10 μL/well reaction concentration of the bodipy-loaded KRAS G12C, GppNHp, and SOS1 were 2.5 nM, 500 uM, and 150 nM, respectively. The reaction plates were incubated at ambient temperature for 2 hours, a time estimated for complete GDP-GTP exchange in the absence of inhibitor. For the KRAS G12D and G12V mutants, similar guanine nucleotide exchange assays were used with 2.5 nM as final concentration for the bodipy loaded KRAS proteins and with 4 hours and 3 hours incubation after adding GppNHp-SOS1 mixture for G12D and G12V respectively. A cyclic peptide described to selectively bind G12D mutant (Sakamoto et al., BBRC 484.3 (2017), 605-611) or internal compounds with confirmed binding were used as positive controls in the assay plates. Fluorescence intensities were measured on a PheraStar plate reader instrument (BMG Labtech) with excitation at 485 nm and emission at 520 nm.
Either GraphPad prism or Genedata Screener SmartFit was used to analyze the data. The IC50 values were derived by fitting the data to a four parameter logistic equation producing a sigmoidal dose-response curve with a variable Hill coefficient.

The test system of another assay is KRAS_G12C pERK. Put plainly: Cellular pERK HTRF assay (KRAS_G12C pERK assay). The class given is cell-based, human. The following applies: KRAS G12C cells, 4 hours incubation with compound, read-out: G12C_pERK. The method, then: MIA PaCa-2 (KRAS G12C; ATCC® CRL-1420), NCI-H358 (KRAS G12C; ATCC® CRL-5807), A427 (KRAS G12D; ATCC® HTB53), HPAFII (KRAS G12D; ATCC® CRL-1997), YAPC (KRAS G12V; DSMZ ACC382), SW480 (KRAS G12V; ATCC® CRL-228) and NCI-H838 (KRAS WT; ATCC® CRL-5844) cells are purchased from ATCC and maintained in RPMI 1640 media supplemented with 10% FBS (Gibco/Life Technologies). The cells are plated at 5000 cells per well (8 uL) into Greiner 384-well low volume, flat-bottom, and tissue culture treated white plates and incubated overnight at […], 5% CO2. The next morning, test compound stock solutions are diluted in media at 3× the final concentration and 4 uL are added to the cells, with a final concentration of 0.1% of DMSO. The cells are incubated with the test compounds for 4 hours (G12C and G12V) or 2 hrs (G12D) at 37° C., 5% CO2. Four uL of 4× lysis buffer with blocking reagent (Cisbio) are added to each well and plates are rotated gently (300 rpm) for 30 minutes at room temperature. Four uL per well of Cisbio anti Phospho-ERK 1/2 d2 is mixed with anti Phospho-ERK 1/2 Cryptate (1:1), and added to each well, incubated overnight in the dark at room temperature. Plates are read on the Pherastar plate reader at 665 nm and 620 nm wavelengths. Data are analyzed in Genedata Screener using SmartFit for IC50 values.

Assay [1] deals with KRAS_G12C pERK in MIA PaCa-2 cells. Put plainly: Whole Blood pERK1/2 HTRF assay (KRAS_G12C WB pERK assay). The assay is classed as cell-based, human. The following applies: compound in whole blood, 4 hours, read-out: G12C_WB_pERK. As for the experimental part:
MIA PaCa-2 cells (KRAS G12C; ATCC® CRL-1420), HPAF-II (KRAS G12D; ATCC® CRL-1997) and YAPC (KRAS G12V; DSMZ ACC382) are maintained in RPMI 1640 with 10% FBS (Gibco/Life Technologies). For MIA PaCa-2 assay, cells are seeded into 96 well tissue culture plates (Corning #3596) at 25000 cells per well in 100 uL media and cultured for 2 days at 37° C., 5% CO2 before the assay. For HPAF-II and YAPC assay, cells are seeded in 96 well tissue culture plates at 50000 cells per well in 100 uL media and cultured for 1 day before the assay. Whole Blood are added to the 1 uL dots of compounds (prepared in DMSO) in 96 well plates and mixed gently by pipetting up and down so that the concentration of the compound in blood is 1× of desired concentration, in 0.5% DMSO. The media is aspirated from the cells and 50 uL per well of whole blood with test compound is added and incubated for 4 hours for MIA PaCa and YAPC assay; or 2 hours for HPAF-II assay, respectively at 37° C., 5% CO2. After dumping the blood, the plates are gently washed twice by adding PBS to the side of the wells and dumping the PBS from the plate onto a paper towel, tapping the plate to drain well. Fifty ul/well of 1× lysis buffer #1 (Cisbio) with blocking reagent (Cisbio) and Benzonase nuclease (Sigma Cat #E1014-5KU, 1:10000 final concentration) is then added and incubated at room temperature for 30 minutes with shaking (250 rpm). Following lysis, 16 uL of lysate is transferred into 384-well Greiner small volume white plate using an Assist Plus (Integra Biosciences, NH). Four uL of 1:1 mixture of anti Phospho-ERK 1/2 d2 and anti Phospho-ERK 1/2 Cryptate (Cisbio) is added to the wells using the Assist Plus and incubated at room temperature overnight in the dark. Plates are read on the Pherastar plate reader at 665 nm and 620 nm wavelengths. Data are analyzed in Genedata Screener using SmartFit for IC50 values.

Chain of KRAS G12C (P01116 1-188 isoform P01116-2 G12C): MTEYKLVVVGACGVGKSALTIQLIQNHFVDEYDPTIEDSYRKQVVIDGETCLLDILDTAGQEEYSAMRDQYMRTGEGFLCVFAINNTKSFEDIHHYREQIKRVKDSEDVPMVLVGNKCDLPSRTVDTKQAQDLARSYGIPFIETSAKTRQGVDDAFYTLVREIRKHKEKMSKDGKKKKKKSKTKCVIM

In the case of `C=C(F)C(=O)N1CC[C@H](n2nnc3c(N4CC(C)(N(C)C)C4)nc4c(F)c(-c5cccc6cccc(C#N)c56)c(C)cc4c32)C[C@H]1CC#N` (single isomer, unassigned) [Example 17a], the IC50 at KRAS G12C was at most 50 nM; in the assay with KRAS_G12C pERK (Homo sapiens, 4 h) it was at most 50 nM; in assay [1] (Homo sapiens) it was 50 to 100 nM.

For the molecule `C=C(F)C(=O)N1CC[C@H](n2nnc3c(O[C@@H](C)[C@@H]4CCCN4C)nc4c(F)c(-c5c(C)ncc6ccccc56)c(C)cc4c32)C[C@H]1CC#N` (single isomer, unassigned) [Example 23b], the IC50 was at most 50 nM on KRAS G12C; at most 50 nM in the assay with KRAS_G12C pERK (Homo sapiens, 4 h); at most 50 nM in assay [1] (Homo sapiens).

With `COC/C=C/C(=O)N1CC[C@H](n2nnc3c(O[C@@H](C)[C@@H]4CCCN4C)nc4c(F)c(-c5c(C)ncc6ccccc56)c(C)cc4c32)C[C@H]1CC#N` (single isomer, unassigned) [Example 24b], the IC50 (on KRAS G12C; with KRAS_G12C pERK; in assay [1] (Homo sapiens)) was at most 50 nM each time.

For the molecule `C=C(F)C(=O)N1CC[C@H](n2nnc3c(O[C@@H](C)[C@@H]4CCCN4C)nc4c(F)c(-c5c(F)ccc6ccc(C)nc56)c(C)cc4c32)C[C@H]1CC#N` (single isomer, unassigned) [Example 25a], the IC50 at KRAS G12C was at most 50 nM; in the assay on KRAS_G12C pERK (Homo sapiens, 4 h), at most 50 nM; in assay [1] (Homo sapiens), 50 to 100 nM.

As for `COC/C=C/C(=O)N1CC[C@H](n2nnc3c(O[C@@H](C)[C@@H]4CCCN4C)nc4c(F)c(-c5cnc(C)c6ccccc56)c(C)cc4c32)C[C@H]1CC#N` (single isomer, unassigned) [Example 26a], the IC50 on KRAS G12C is at most 50 nM; in the assay with KRAS_G12C pERK (Homo sapiens, 4 h) it was at most 50 nM; in assay [1] (Homo sapiens) it was 50 to 100 nM.

In the case of `C=C(F)C(=O)N1CC[C@H](n2nnc3c(O[C@@H](C)[C@@H]4CCCN4C)nc4c(F)c(-c5c(F)ccc6cccnc56)c(C)cc4c32)C[C@H]1CC#N` (single isomer, unassigned) [Example 27a], the IC50 at KRAS G12C was at most 50 nM; in the assay on KRAS_G12C pERK (Homo sapiens, 4 h) it was at most 50 nM; in assay [1] (Homo sapiens), 50 to 100 nM.

For the molecule `C=C(F)C(=O)N1CC[C@H](n2nnc3c(O[C@@H](C)[C@@H]4CCCN4C)nc4c(F)c(-c5c(F)ccc6cccnc56)c(C)cc4c32)C[C@H]1CC#N` (single isomer, unassigned) [Example 27b], the IC50 was at most 50 nM at KRAS G12C, at most 50 nM with KRAS_G12C pERK and 50 to 100 nM in assay [1].

For the molecule `COC/C=C/C(=O)N1CC[C@H](n2nnc3c(N4CC(C)(N(C)C)C4)nc4c(F)c(-c5cccc(C)c5C)c(C)cc4c32)C[C@H]1CC#N` [Example 6, 2-((2S,4S)-4-(4-(3-(dimethylamino)-3-methylazetidin-1-yl)-7-(2,3-dimethylphenyl)-6-fluoro-8-methyl-1H-[1,2,3]triazolo[4,5-c]quinolin-1-yl)-1-((E)-4-methoxybut-2-enoyl)piperidin-2-yl)acetonitrile], the IC50 on KRAS G12C is at most 50 nM; in the assay on KRAS_G12C pERK (Homo sapiens, 4 h), at most 50 nM; in assay [1] (Homo sapiens), 100 to 1000 nM.

Take `COC/C=C/C(=O)N1CC[C@H](n2nnc3c(O[C@@H](C)[C@@H]4CCCN4C)nc4c(F)c(-c5nn(C)c6ccccc56)c(C)cc4c32)C[C@H]1CC#N` [Example 9, 2-((2S,4S)-4-(6-fluoro-8-methyl-7-(1-methyl-1H-indazol-3-yl)-4-((S)-1-((S)-1-methylpyrrolidin-2-yl)ethoxy)-1H-[1,2,3]triazolo[4,5-c]quinolin-1-yl)-1-((E)-4-methoxybut-2-enoyl)piperidin-2-yl)acetonitrile]: the IC50 is at most 50 nM at KRAS G12C; at most 50 nM in the assay on KRAS_G12C pERK (Homo sapiens, 4 h); at most 50 nM in assay [1] (Homo sapiens).

As to `C=C(F)C(=O)N1CC[C@H](n2nnc3c(O[C@@H](C)[C@@H]4CCCN4C)nc4c(F)c(-c5ncc(F)c6ccccc56)c(C)cc4c32)C[C@H]1CC#N` [Example 22, 2-((2S,4S)-4-(6-fluoro-7-(4-fluoroisoquinolin-1-yl)-8-methyl-4-((S)-1-((S)-1-methylpyrrolidin-2-yl)ethoxy)-1H-[1,2,3]triazolo[4,5-c]quinolin-1-yl)-1-(2-fluoroacryloyl)piperidin-2-yl)acetonitrile], the IC50 is at most 50 nM at KRAS G12C; at most 50 nM in the assay with KRAS_G12C pERK (Homo sapiens, 4 h); at most 50 nM in assay [1] (Homo sapiens).

For the origin of these results see patent publication US12441727B2, “Tricyclic compounds as inhibitors of KRAS” (Incyte Corporation, priority 2021, dated 2025).
